In brackets after ≈: the same amount, converted by molar mass.
Key:
[1] = tested on: Mus musculus; assay: Ability to induce tail vein irritation in mice administered intravenously determined by tail vein assay; Activity- clean; type: functional, organism-based
[2] = tested on: Candida albicans; assay: Concentration required to inhibit 90-100% of visible fungal growth in Candida albicans (A26) tested in vitro; type: functional
[3] = tested on: Aspergillus fumigatus; assay: Concentration required to inhibit 90-100% of visible fungal growth in Aspergillus fumigatus (WM1) tested in vitro; type: functional
[4] = tested on: Mus musculus; assay: Effective dose required to cure 50% of fungal infection in mice administered intraperitoneally tested in vivo; type: functional
[5] = tested on: Cryptococcus neoformans; assay: Concentration required to inhibit 90-100% of visible fungal growth in (M1 106) tested in vitro; type: functional
[6] = tested on: Mus musculus; assay: Ability to induce tail vein irritation in mice administered intravenously determined by tail vein assay; Activity- Positive; type: functional, organism-based

MIC [2] | MIC [3] | MIC [5] | Structure (SMILES) | Activity [1] | ED50 [4] | Activity [6]
20 µg/mL (≈ 16 µM) | > 20 µg/mL | 5 µg/mL (≈ 4 µM) | C/C=C1\NC(=O)[C@H]([C@H](C)O)NC(=O)[C@H](CCN)NC(=O)[C@H](CCCCN)NC(=O)[C@H](CC(=O)O)NC(=O)[C@@H](CCN)NC(=O)[C@@H](NC(=O)C[C@H](O)CCCCCCCCCCC)COC(=O)[C@H]([C@H](O)CCl)NC(=O)[C@H]([C@H](O)C(=O)NCCC)NC1=O | Activity- clean | 14 mg/kg | 
0.312 µg/mL (≈ 0.259 µM) | > 20 µg/mL | < 1 µg/mL | C/C=C1/NC(=O)[C@H]([C@H](C)O)NC(=O)[C@H](CCN)NC(=O)[C@H](CCCCN)NC(=O)[C@H](CC(=O)O)NC(=O)[C@@H](CCN)NC(=O)[C@@H](NC(=O)C[C@H](O)CCCCCCCCCCC)COC(=O)[C@H]([C@H](O)CCl)NC(=O)[C@H]([C@H](O)C(N)=O)NC1=O | Activity- clean | > 20 mg/kg | 
20 µg/mL (≈ 15.8 µM) | > 20 µg/mL | 1.25 µg/mL (≈ 0.99 µM) | C/C=C1/NC(=O)[C@H]([C@H](C)O)NC(=O)[C@H](CCN)NC(=O)[C@H](CCCCN)NC(=O)[C@H](CC(=O)O)NC(=O)[C@@H](CCN)NC(=O)[C@@H](NC(=O)C[C@H](O)CCCCCCCCCCC)COC(=O)[C@H]([C@H](O)CCl)NC(=O)[C@H]([C@H](O)C(=O)NCCCC)NC1=O | Activity- clean | > 20 mg/kg | 
10 µg/mL (≈ 7.3 µM) | > 20 µg/mL | 1.25 µg/mL (≈ 0.913 µM) | C/C=C1\NC(=O)[C@H]([C@H](C)O)NC(=O)[C@H](CCN)NC(=O)[C@H](CCCCN)NC(=O)[C@H](CC(=O)O)NC(=O)[C@@H](CCN)NC(=O)[C@@H](NC(=O)C[C@H](O)CCCCCCCCCCC)COC(=O)[C@H]([C@H](O)CCl)NC(=O)[C@H]([C@H](O)C(=O)NC(Cc2ccccc2)C(=O)OC)NC1=O (some centres undefined) | Activity- clean | > 20 mg/kg | 
5 µg/mL (≈ 3.91 µM) | > 20 µg/mL | 1.25 µg/mL (≈ 0.978 µM) | C/C=C1/NC(=O)[C@H]([C@H](C)O)NC(=O)[C@H](CCN)NC(=O)[C@H](CCCCN)NC(=O)[C@H](CC(=O)O)NC(=O)[C@@H](CCN)NC(=O)[C@@H](NC(=O)C[C@H](O)CCCCCCCCCCC)COC(=O)[C@H]([C@H](O)CCl)NC(=O)[C@H]([C@H](O)C(=O)NCCN(C)C)NC1=O | Activity- clean | > 20 mg/kg | 
5 µg/mL (≈ 4 µM) | > 20 µg/mL | 0.625 µg/mL (≈ 0.5 µM) | C/C=C1/NC(=O)[C@H]([C@H](C)O)NC(=O)[C@H](CCN)NC(=O)[C@H](CCCCN)NC(=O)[C@H](CC(=O)O)NC(=O)[C@@H](CCN)NC(=O)[C@@H](NC(=O)C[C@H](O)CCCCCCCCCCC)COC(=O)[C@H]([C@H](O)CCl)NC(=O)[C@H]([C@H](O)C(=O)NCCO)NC1=O | Activity- clean |  | 
5 µg/mL (≈ 4.01 µM) | > 20 µg/mL | 0.312 µg/mL (≈ 0.25 µM) | C/C=C1/NC(=O)[C@H]([C@H](C)O)NC(=O)[C@H](CCN)NC(=O)[C@H](CCCCN)NC(=O)[C@H](CC(=O)O)NC(=O)[C@@H](CCN)NC(=O)[C@@H](NC(=O)C[C@H](O)CCCCCCCCCCC)COC(=O)[C@H]([C@H](O)CCl)NC(=O)[C@H]([C@H](O)C(=O)NC2CC2)NC1=O | Activity- clean | > 20 mg/kg | 
5 µg/mL (≈ 3.97 µM) | > 20 µg/mL | 1.25 µg/mL (≈ 0.991 µM) | C/C=C1/NC(=O)[C@H]([C@H](C)O)NC(=O)[C@H](CCN)NC(=O)[C@H](CCCCN)NC(=O)[C@H](CC(=O)O)NC(=O)[C@@H](CCN)NC(=O)[C@@H](NC(=O)C[C@H](O)CCCCCCCCCCC)COC(=O)[C@H]([C@H](O)CCl)NC(=O)[C@H]([C@H](O)C(=O)NC2CCC2)NC1=O | Activity- clean | > 20 mg/kg | 
20 µg/mL (≈ 15.5 µM) | > 20 µg/mL | 1.25 µg/mL (≈ 0.968 µM) | C/C=C1/NC(=O)[C@H]([C@@H](C)O)NC(=O)[C@H](CCN)NC(=O)[C@H](CCCCN)NC(=O)[C@H](CC(=O)O)NC(=O)[C@@H](CCN)NC(=O)[C@@H](NC(=O)C[C@H](O)CCCCCCCCCCC)COC(=O)[C@H]([C@H](O)CCl)NC(=O)[C@H]([C@H](O)C(=O)NCCCN(C)C)NC1=O |  |  | 
2.5 µg/mL (≈ 1.95 µM) | > 20 µg/mL | 0.08 µg/mL (≈ 0.0626 µM) | C/C=C1/NC(=O)[C@H]([C@H](C)O)NC(=O)[C@H](CCN)NC(=O)[C@H](CCCCN)NC(=O)[C@H](CC(=O)O)NC(=O)[C@@H](CCN)NC(=O)[C@@H](NC(=O)C[C@H](O)CCCCCCCCCCC)COC(=O)[C@H]([C@H](O)CCl)NC(=O)[C@H]([C@H](O)C(=O)NCC(=O)OC)NC1=O | Activity- clean | > 20 mg/kg | 
1.25 µg/mL (≈ 1.02 µM) | > 20 µg/mL | 0.156 µg/mL (≈ 0.128 µM) | C/C=C1/NC(=O)[C@H]([C@H](C)O)NC(=O)[C@H](CCN)NC(=O)[C@H](CCCCN)NC(=O)[C@H](CC(=O)O)NC(=O)[C@@H](CCN)NC(=O)[C@@H](NC(=O)C[C@H](O)CCCCCCCCCCC)COC(=O)[C@H]([C@H](O)CCl)NC(=O)[C@H]([C@H](O)C(=O)NC)NC1=O | Activity- clean | > 20 mg/kg | 
10 µg/mL (≈ 8.1 µM) | > 20 µg/mL | 1.25 µg/mL (≈ 1.01 µM) | C/C=C1/NC(=O)[C@H]([C@@H](C)O)NC(=O)[C@H](CCN)NC(=O)[C@H](CCCCN)NC(=O)[C@H](CC(=O)O)NC(=O)[C@@H](CCN)NC(=O)[C@@H](NC(=O)C[C@H](O)CCCCCCCCCCC)COC(=O)[C@H]([C@H](O)CCl)NC(=O)[C@H]([C@H](O)C(=O)NCC)NC1=O |  |  | 

Structure (SMILES) | MIC [2] | MIC [3] | MIC [5] | Activity [1] | ED50 [4] | Activity [6]
C/C=C1/NC(=O)[C@H]([C@H](C)O)NC(=O)[C@H](CCN)NC(=O)[C@H](CCCCN)NC(=O)[C@H](CC(=O)O)NC(=O)[C@@H](CCN)NC(=O)[C@@H](NC(=O)C[C@H](O)CCCCCCCCCCC)COC(=O)[C@H]([C@H](O)CCl)NC(=O)[C@H]([C@H](O)C(=O)O)NC1=O | 0.625 µg/mL (≈ 0.517 µM) | > 20 µg/mL | 0.078 µg/mL (≈ 0.0646 µM) |  |  | Activity- Positive
